Activity calls are given as the source filed them. No cut-off for these calls is given here.
Key:
[1] = tested on: Influenza A virus; assay: Antiviral activity against influenza A virus A/WSN/1933 H1N1 infected in MDCK cells assessed as protection against virus-induced cytopathic effect after 48 hrs; format: functional, organism-based
[2] = tested on: Influenza A virus; assay: Antiviral activity against influenza A virus A/Vietnam/1194/2004 H5N1 infected in MDCK cells assessed as protection against virus-induced cytopathic effect after 48 hrs; format: functional, organism-based
[3] = tested on: Influenza A virus; assay: Antiviral activity against influenza A virus A/WSN/1933 H1N1 infected in MDCK cells after 3 days by plaque reduction assay; format: functional, organism-based; details: 72 h
[4] = tested on: Influenza A virus; assay: Inhibition of influenza A virus A/WSN/1933 H1N1-induced hemagglutinination of chicken RBC; format: functional, organism-based
[5] = tested on: Influenza A virus (A/Vietnam/1194/2004(H5N1)); assay: Binding affinity to influenza A virus A/Vietnam/1194/2004 H5N1 hemagglutininin to alpha-2,3-sialic acid galactosyl oligomers
[6] = tested on: Influenza A virus; assay: Antiviral activity against influenza A virus A/WSN/1933 H1N1 infected in MDCK cells assessed as reduction of infectious viral titer at 0.4 to 10 uM incubated for 1 hr measured after 3 days relative to control; format: functional; design: scale not given: the % may be the effect or the level left
[7] = tested on: Influenza A virus; assay: Antiviral activity against influenza A virus A/WSN/1933 H1N1 infected in MDCK cells assessed as reduction of infectious viral titer incubated for 1 hr measured after 3 days; format: functional, organism-based
[8] = tested on: Influenza A virus; assay: Antiviral activity against influenza A virus A/WSN/1933 H1N1 infected in MDCK cells assessed as reduction of infectious viral titer at 40 nM incubated for 1 hr measured after 3 days relative to control; format: functional; design: scale not given: the % may be the effect or the level left
[9] = tested on: Influenza A virus; assay: Antiviral activity against influenza A virus A/WSN/1933 H1N1 infected in MDCK cells assessed as reduction of infectious viral titer at 200 nM incubated for 1 hr measured after 3 days; format: functional; design: scale not given: the % may be the effect or the level left
[10] = tested on: Influenza A virus; assay: Antiviral activity against influenza A virus A/WSN/1933 H1N1 infected in MDCK cells assessed as reduction of infectious viral titer at 100 nM incubated for 1 hr under laminar flow hood light before infection measured after 3 days; format: functional, organism-based
[11] = tested on: Influenza A virus; assay: Antiviral activity against influenza A virus A/WSN/1933 H1N1 infected in MDCK cells assessed as reduction of infectious viral titer at 500 nM incubated for 1 hr under laminar flow hood light before infection measured after 3 days; format: functional, organism-based
[12] = tested on: Influenza A virus; assay: Antiviral activity against influenza A virus A/WSN/1933 H1N1 infected in MDCK cells assessed as reduction of infectious viral titer at 100 nM incubated for 1 hr under laminar flow hood light before infection measured after 3 days in presence of 10 fold excess zanamivir; format: functional, organism-based
[13] = tested on: Influenza A virus; assay: Antiviral activity against influenza A virus A/WSN/1933 H1N1 infected in MDCK cells assessed as reduction of infectious viral titer at 500 nM incubated for 1 hr under laminar flow hood light before infection measured after 3 days in presence of 10 fold excess zanamivir; format: functional, organism-based
[14] = biological target: T1, Neuraminidase (Influenza A virus, UniProt B4URF0); assay: Inhibition of influenza A virus A/WSN/1933 H1N1 neuraminidase using NA-STAR substrate after 15 mins incubation at room temperature by fluorescent assay
[15] = biological target: T1, Neuraminidase; assay: Inhibition of influenza A virus A/Vietnam/1194/2004 H5N1 neuraminidase using NA-STAR substrate after 15 mins incubation at room temperature by fluorescent assay
[16] = tested on: Influenza A virus; assay: Antiviral activity against influenza A virus A/Vietnam/1194/2004 H5N1 infected in MDCK cells after 3 days by plaque reduction assay; format: functional, organism-based; details: 72 h
[17] = biological target: Neuraminidase (Influenza A virus) (UniProt B4URF0); assay: Inhibition of influenza A virus A/WSN/1933 H1N1 neuraminidase at 10 nM using NA-STAR substrate after 15 mins incubation at room temperature by fluorescent assay relative to control
[18] = biological target: Neuraminidase (Influenza A virus) (UniProt B4URF0); assay: Inhibition of influenza A virus A/WSN/1933 H1N1 neuraminidase at 40 nM using NA-STAR substrate after 15 mins incubation at room temperature by fluorescent assay relative to control
[19] = biological target: Neuraminidase (Influenza A virus) (UniProt B4URF0); assay: Inhibition of influenza A virus A/Vietnam/1194/2004 H5N1 neuraminidase at 10 nM using NA-STAR substrate after 15 mins incubation at room temperature by fluorescent assay relative to control
[20] = biological target: Neuraminidase (Influenza A virus) (UniProt B4URF0); assay: Inhibition of influenza A virus A/Vietnam/1194/2004 H5N1 neuraminidase at 40 nM using NA-STAR substrate after 15 mins incubation at room temperature by fluorescent assay relative to control
[21] = tested on: Influenza A virus; assay: Ratio of EC50 for drug to EC50 for zanamivir against influenza A virus A/Vietnam/1194/2004 H5N1 by plaque reduction assay; format: functional

T1 sequence (B4URF0 whole entry): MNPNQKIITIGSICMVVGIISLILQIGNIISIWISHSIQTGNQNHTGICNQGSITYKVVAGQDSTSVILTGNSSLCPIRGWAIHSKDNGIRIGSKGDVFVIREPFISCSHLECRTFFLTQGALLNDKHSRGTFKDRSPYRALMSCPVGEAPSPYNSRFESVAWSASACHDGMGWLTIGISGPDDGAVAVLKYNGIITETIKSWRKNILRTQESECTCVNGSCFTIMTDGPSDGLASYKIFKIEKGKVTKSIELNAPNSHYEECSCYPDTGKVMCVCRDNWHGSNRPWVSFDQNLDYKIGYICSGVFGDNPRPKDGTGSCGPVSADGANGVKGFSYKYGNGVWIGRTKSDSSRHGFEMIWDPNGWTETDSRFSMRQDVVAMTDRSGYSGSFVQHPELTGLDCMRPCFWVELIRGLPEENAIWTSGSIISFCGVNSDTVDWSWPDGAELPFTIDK
Sequence of Neuraminidase (Influenza A virus) (B4URF0 as listed by the source): as the sequence (B4URF0 whole entry) above

Question: Which Activity [1] does the source give for `CC(=O)N[C@H]1[C@H]([C@H](OC(=O)NCc2cn(CCOCCOCCOCCNC(=O)COc3ccc(-c4c5nc(c(-c6ccc(OCC(=O)NCCOCCOCCOCCn7cc(CNC(=O)O[C@@H]([C@@H]8OC(C(=O)O)=C[C@H](NC(=N)N)[C@H]8NC(C)=O)[C@H](O)CO)nn7)cc6)c6ccc([nH]6)c(-c6ccc(OCC(=O)NCCOCCOCCOCCn7cc(CNC(=O)O[C@@H]([C@@H]8OC(C(=O)O)=C[C@H](NC(=N)N)[C@H]8NC(C)=O)[C@H](O)CO)nn7)cc6)c6nc(c(-c7ccc(OCC(=O)NCCOCCOCCOCCn8cc(CNC(=O)O[C@@H]([C@@H]9OC(C(=O)O)=C[C@H](NC(=N)N)[C@H]9NC(C)=O)[C@H](O)CO)nn8)cc7)c7ccc4[nH]7)C=C6)C=C5)cc3)nn2)[C@H](O)CO)OC(C(=O)O)=C[C@@H]1NC(=N)N` here?
Answer: The Activity was “Active”.

Question: And the Activity [2]?
Answer: The Activity was “Active”.

Question: And the EC50 [3]?
Answer: The EC50 was 0.5 nM.

Question: What about the Activity [4] of the same compound?
Answer: Its Activity is “inactive”.

Question: What about the Activity [5] of the same compound?
Answer: The Activity was “inactive”.

Question: `CC(=O)N[C@H]1[C@H]([C@H](OC(=O)NCc2cn(CCOCCOCCOCCOCCNC(=O)COc3ccc(-c4c5nc(c(-c6ccc(OCC(=O)NCCOCCOCCOCCOCCn7cc(CNC(=O)O[C@@H]([C@@H]8OC(C(=O)O)=C[C@H](NC(=N)N)[C@H]8NC(C)=O)[C@H](O)CO)nn7)cc6)c6ccc([nH]6)c(-c6ccc(OCC(=O)NCCOCCOCCOCCOCCn7cc(CNC(=O)O[C@@H]([C@@H]8OC(C(=O)O)=C[C@H](NC(=N)N)[C@H]8NC(C)=O)[C@@H](O)CO)nn7)cc6)c6nc(c(-c7ccc(OCC(=O)NCCOCCOCCOCCOCCn8cc(CNC(=O)O[C@@H]([C@@H]9OC(C(=O)O)=C[C@H](NC(=N)N)[C@H]9NC(C)=O)[C@H](O)CO)nn8)cc7)c7ccc4[nH]7)C=C6)C=C5)cc3)nn2)[C@H](O)CO)OC(C(=O)O)=C[C@@H]1NC(=N)N` was tested. Which Activity [6] did it give?
Answer: The Activity was 60%.

Question: What about the Activity [1] of the same compound?
Answer: The Activity was “Active”.

Question: What about the Activity [2] of the same compound?
Answer: Its Activity is “Active”.

Question: What about the EC50 [3] of the same compound?
Answer: The EC50 was 0.1 nM.

Question: And the Activity [7]?
Answer: Its Activity is “Dose-dependent effect”.

Question: What about the Activity [8] of the same compound?
Answer: Its Activity is under 20%.

Question: What about the Activity [9] of the same compound?
Answer: The Activity was over 95%.

Question: And the Activity [4]?
Answer: Its Activity is “inactive”.

Question: What about the Activity [5] of the same compound?
Answer: The Activity was “inactive”.

Question: What about the Activity [10] of the same compound?
Answer: Its Activity is “Active”.

Question: What about the Activity [11] of the same compound?
Answer: Its Activity is “Active”.

Question: What about the Activity [12] of the same compound?
Answer: The Activity was “inactive”.

Question: And the Activity [13]?
Answer: The Activity was “inactive”.

Question: With `CC(=O)N[C@H]1[C@H]([C@H](OC(=O)NCc2cn(CCOCCOCCOCCNC(=O)COc3ccc(-c4c5nc(c(-c6ccc(OCC(=O)NCCOCCOCCOCCn7cc(CNC(=O)O[C@@H]([C@@H]8OC(C(=O)O)=C[C@H](N=C(N)N)[C@H]8NC(C)=O)[C@H](O)CO)nn7)cc6)c6ccc([nH]6)c(-c6ccc(OCC(=O)NCCOCCOCCOCCn7cc(CNC(=O)O[C@@H]([C@@H]8OC(C(=O)O)=C[C@H](N=C(N)N)[C@H]8NC(C)=O)[C@H](O)CO)nn7)cc6)c6nc(c(-c7ccc(OCC(=O)NCCOCCOCCOCCn8cc(CNC(=O)O[C@@H]([C@@H]9OC(C(=O)O)=C[C@H](N=C(N)N)[C@H]9NC(C)=O)[C@H](O)CO)nn8)cc7)c7ccc4[nH]7)C=C6)C=C5)cc3)nn2)[C@H](O)CO)OC(C(=O)O)=C[C@@H]1N=C(N)N` as the compound, how does the IC50 [14] read?
Answer: The IC50 was 8.5 nM.

Question: What about the IC50 [15] of the same compound?
Answer: Its IC50 is 16 nM.

Question: With `CC(=O)N[C@H]1[C@H]([C@H](OC(=O)NCc2cn(CCOCOc3ccc(-c4c5nc(c(-c6ccc(OCOCCn7cc(CNC(=O)O[C@@H]([C@@H]8OC(C(=O)O)=C[C@H](N=C(N)N)[C@H]8NC(C)=O)[C@H](O)CO)nn7)cc6)c6ccc([nH]6)c(-c6ccc(OCOCCn7cc(CNC(=O)O[C@@H]([C@@H]8OC(C(=O)O)=C[C@H](N=C(N)N)[C@H]8NC(C)=O)[C@H](O)CO)nn7)cc6)c6nc(c(-c7ccc(OCOCCn8cc(CNC(=O)O[C@@H]([C@@H]9OC(C(=O)O)=C[C@H](N=C(N)N)[C@H]9NC(C)=O)[C@H](O)CO)nn8)cc7)c7ccc4[nH]7)C=C6)C=C5)cc3)nn2)[C@H](O)CO)OC(C(=O)O)=C[C@@H]1N=C(N)N` as the compound, how does the IC50 [14] read?
Answer: The IC50 was 11 nM.

Question: With `Oc1ccc(-c2c3nc(c(-c4ccc(O)cc4)c4ccc([nH]4)c(-c4ccc(O)cc4)c4nc(c(-c5ccc(O)cc5)c5ccc2[nH]5)C=C4)C=C3)cc1` as the compound, how does the Activity [10] read?
Answer: Its Activity is “inactive”.

Question: And the Activity [11]?
Answer: Its Activity is “inactive”.

Question: Which EC50 [3] does the source give for `CC(=O)N[C@H]1[C@H]([C@H](O)[C@H](O)CO)OC(C(=O)O)=C[C@@H]1NC(=N)N` [ZANAMIVIR] here?
Answer: The EC50 was 11 nM.

Question: And the EC50 [16]?
Answer: The EC50 was 613 nM.

Question: And the Activity [10]?
Answer: The Activity was “inactive”.

Question: What about the Activity [11] of the same compound?
Answer: The Activity was “inactive”.

Question: Which results are given for `CC(=O)N[C@H]1[C@H]([C@H](OC(=O)NCc2cn(CCOCCOCCOCCOCCNC(=O)COc3ccc(-c4c5nc(c(-c6ccc(OCC(=O)NCCOCCOCCOCCOCCn7cc(CNC(=O)O[C@@H]([C@@H]8OC(C(=O)O)=C[C@H](N=C(N)N)[C@H]8NC(C)=O)[C@H](O)CO)nn7)cc6)c6ccc([nH]6)c(-c6ccc(OCC(=O)NCCOCCOCCOCCOCCn7cc(CNC(=O)O[C@@H]([C@@H]8OC(C(=O)O)=C[C@H](N=C(N)N)[C@H]8NC(C)=O)[C@@H](O)CO)nn7)cc6)c6nc(c(-c7ccc(OCC(=O)NCCOCCOCCOCCOCCn8cc(CNC(=O)O[C@@H]([C@@H]9OC(C(=O)O)=C[C@H](N=C(N)N)[C@H]9NC(C)=O)[C@H](O)CO)nn8)cc7)c7ccc4[nH]7)C=C6)C=C5)cc3)nn2)[C@H](O)CO)OC(C(=O)O)=C[C@@H]1N=C(N)N`?
Answer: IC50 [14]: 3.7 nM; IC50 [15]: 7.6 nM

Question: `CC(=O)N[C@H]1[C@H]([C@H](OC(=O)NCc2cn(CCOCOc3ccc(-c4c5nc(c(-c6ccc(OCOCCn7cc(CNC(=O)O[C@@H]([C@@H]8OC(C(=O)O)=C[C@H](NC(=N)N)[C@H]8NC(C)=O)[C@H](O)CO)nn7)cc6)c6ccc([nH]6)c(-c6ccc(OCOCCn7cc(CNC(=O)O[C@@H]([C@@H]8OC(C(=O)O)=C[C@H](NC(=N)N)[C@H]8NC(C)=O)[C@H](O)CO)nn7)cc6)c6nc(c(-c7ccc(OCOCCn8cc(CNC(=O)O[C@@H]([C@@H]9OC(C(=O)O)=C[C@H](NC(=N)N)[C@H]9NC(C)=O)[C@H](O)CO)nn8)cc7)c7ccc4[nH]7)C=C6)C=C5)cc3)nn2)[C@H](O)CO)OC(C(=O)O)=C[C@@H]1NC(=N)N` was tested. Which inhibition [17] did it give?
Answer: Its inhibition is 24%.

Question: And the inhibition [18]?
Answer: Its inhibition is 51%.

Question: And the inhibition [19]?
Answer: Its inhibition is 24%.

Question: What about the inhibition [20] of the same compound?
Answer: Its inhibition is 51%.

Question: What about the Activity [1] of the same compound?
Answer: The Activity was “Active”.

Question: And the Activity [2]?
Answer: The Activity was “Active”.

Question: What about the EC50 [3] of the same compound?
Answer: The EC50 was 2 nM.

Question: And the EC50 [16]?
Answer: The EC50 was 11 nM.

Question: What about the “Ratio EC50” value [21] of the same compound?
Answer: The value was 55.

Question: And the Activity [4]?
Answer: The Activity was “inactive”.

Question: What about the Activity [5] of the same compound?
Answer: The Activity was “inactive”.

Reference: ChEMBL document CHEMBL1158456, “Synergistic effect of zanamivir-porphyrin conjugates on inhibition of neuraminidase and inactivation of influenza virus” (J Med Chem, 2009)
